Here are results for two molecules from US10723744B2, “Transplantation therapies” (Aphios Corporation, priority 2007, dated 2020).

Entries after “also recorded” stand apart in the source; their conditions may differ.

Data set [1] concerns HMECs. Put plainly: Time course of protection against LTB4 induced PMN TEM after 1 h pretreatment, HMECs. Type of data set: cell-based, human. The note with it: 100 nM, 1 h pretreatment, washed, tested at 0, 24, 48 hours. On the procedure: FIG. 6 graphically depicts protection against LTB4 induced PMN TEM with PMA up to 48 h after pretreatment. HMECs were pretreated for 1 h with PMA and washed with HBSS three times to remove PMA prior to replacement of culture medium. Neutrophil migration studies were then performed at 0, 24, or 48 hours. Migration was stimulated by adding 500,000 neutrophils to the top well and 100 nM LTB4 to the lower well at 0, 24, and 48 hours after PMA pretreatment. […] PMA (100 nM, (10^−7M) reduced LTB4 induced migration up to 48 hours after 1 h of endothelial-specific pretreatment (***p<0.001).
Referring now to FIG. 7, FIG. 7 graphically depicts protection from LTB4 induced PMN TEM with Bryostatin-1 up to 48 hours after pretreatment. HMECs were pretreated for 1 h with Bryostatin-1 and washed with HBSS three times to remove Bryostatin-1 prior to replacement of culture medium. Neutrophil migration studies were then performed at 0, 24, or 48 hours. Migration was stimulated by adding 500,000 neutrophils to the top well and 100 nM LTB4 to the lower well at 0, 24, and 48 hours after Bryostatin-1 pretreatment. […] Bryostatin-1 (100 nM) reduced LTB4 induced migration up to 48 hours after 1 hour endothelial pretreatment (***p<0.001).
(§1) At confluency, HUVECs were treated for 1 h at 37° C. with Bryostatin-1 (10 nM, 100 nM) in EGM or EGM alone. Inserts were washed three times with HBSS (to reduce drug effects on the neutrophils) and migration assays were ran at t=0, 24, or 48 h. After time elapsed, HUVECs were placed in a new plate containing either 500 μL 100 nM LTB4 or HBSS alone for control. 500 μL HBSS was then added to the top well and spiked with 500,000 neutrophils. Neutrophils were allowed to migrate for 3 h at 37° C. Migration was stopped by removing the inserts and migration was measured using the MPO assay.
(§2) Neutrophil migration was measured using myeloperoxidase (MPO) analysis. Cell culture inserts were first removed and plates were spun at 1,500 RPM for 5 min. The supernatant was removed, and MPO activity was measured using TMB/peroxide as chromogen. The reaction was stopped with sulfuric acid and absorbance was read at 450 nm using a microplate reader. All experiments were performed n=6. Data was expressed as “% neutrophil migration”, which allowed cumulative statistical analysis to be done and account for unpreventable batch-to-batch variations.

Another data set deals with HMEC. Put plainly: Alamar blue endothelial viability assay, HMEC. Type of data set: cell-based, human. As to conditions: single 1 h 100 nM treatment; time points 1, 24, 48 h. On the procedure: (§3) The Alamar blue assay was used to determine endothelial viability after pharmacological intervention. Alamar blue contains a REDOX indicator that results in a color change upon chemical reduction by cellular metabolic activity. Endothelial cells were treated with Bryostatin-1 (100 nM) for 1 h and washed three times with HBSS. Alamar blue (10%) in media was added for 2.5 h at T=0, 24, or 48 hours after drug treatment and the ratio of absorbances (570-600 nm) was measured to determine metabolic activity.

The test system of data set [2] is HMECs. Type of data set: cell-based, human. On the procedure:
(§4) At confluency HMECs were treated for 1 h at 37° C. with Bryostatin-1 (10 nM, 100 nM) in MCDB-131 media or MCDB-131 media alone. Inserts were washed three times with Hank's Balanced Salt Solution (HBSS) (to eliminate drug effects on the neutrophils) and placed in a new plate containing either 500 μL 100 nM LTB4, or HBSS alone for control. 500 μL HBSS was then added to the top well and spiked with 500,000 neutrophils. For TNF-α experiments, HMECs were left in 20 ng/ml TNF-α in MCDB-131 for 24 h TNF-α was removed and HMECs washed three times. HMECs were treated for 1 h with Bryostatin-1 in endothelial growth medium (EGM) (10 nM, 100 nM). The drug was removed and cells were washed three times. 500 μL HBSS was added to both upper and lower chambers and spiked with 500,000 neutrophils. Neutrophils were allowed to migrate for 3 h at 37° C. Migration was stopped by removing the inserts and migration was measured using the myeloperoxidase (MPO) assay.
as §2

Data set [3] concerns endothelial and epithelial cells. As to conditions: several types of endothelial and epithelial cells; cited from earlier work.
The test system of the next data set is HMEC monolayers. Put plainly: LTB4 induced neutrophil adhesion to the endothelial monolayer. Type of data set: cell-based, human. The note with it: data not shown. On the procedure: (§5) Confluent HMEC monolayers were plated on 48-well plates for adhesion studies, transwells for migration studies, and pretreated with a variety of pharmacological inhibitors and activators for 1 hour. Monolayers were washed three times with HBSS to remove all drug effects on the endothelium. To initiate migration, 100 nM LTB4 was added to the lower compartment and 500,000 neutrophils were added to the upper compartment and allowed to migrate for 3 h. For adhesion assays, LTB4 was added along with 500,000 neutrophils and allowed to adhere for 1 h (time of max. adhesion as determined in FIG. 1). […] The data are shown as % change in migration and adhesion as assessed by MPO assay. All values are expressed as means±SE. Data were analyzed using a one-way ANOVA with Bonferroni corrections for multiple comparisons. Probability (p) values of <0.05 were considered significant. ***p<0.001 vs. LTB4; **p<0.01 vs. LTB4; **p<0.05 vs. LTB4; n=4 for all experiments.

A further data set has as its system HUVECs. Put plainly: Time course of protection against LTB4 induced PMN TEM after 1 h pretreatment, HUVECs. It counts as cell-based, human. The note with it: single 1 h 100 nM pretreatment. On the procedure:
as §1, §2

Data set [4] deals with PKC-ε siRNA nucleofected HUVEC. Put plainly: LTB4 induced neutrophil migration across PKC-ε siRNA nucleofected HUVEC. It counts as cell-based, human. The note with it: 1 hour pretreatment. On the procedure:
HUVECs were pretreated with Go-6983 (1, 10, 100 nM), or Go-6976 (1, 10, 100 nM) for 30 minutes, then spiked with 100 nM Bryostatin-1 for 1 hour. HUVECs previously nucleofected with PKC-δ, -ε, or control siRNA were just treated in Bryostatin-1 for 1 hour. HUVECs were washed three times and placed in a new plate containing either 500 μL 100 nM LTB4, or HBSS alone for control. Neutrophils were allowed to migrate for 3 h at 37° C. Migration was stopped by removing the inserts and migration was measured using the MPO assay.
as §2
Optimum nucleofection parameters were determined using nucleofection of a control vector pmaxGFP. Using fluorescence microscopy and flow cytometry, 2 μg vector/500,000 cells nucleofected yielded the highest nucleofection (data not shown). HUVECs were grown to 70% confluency, trypsinized, and then counted. […]

The subject of the next data set is HUVEC. Put plainly: Alamar blue endothelial viability assay, HUVEC. It counts as cell-based, human. On the procedure: as §3
In general terms: The colour change of resazurin is a common sign of viable cells or microbes.

Data set [5] deals with HMECs. Put plainly: LTB4 induced neutrophil migration across HMEC monolayers (transwell, MPO assay). Type of data set: cell-based, human. The note with it: 100 nM LTB4. On the procedure:
as §4, §2, §5

For the next data set, the system named is endothelial cells. The note with it: greater effect seen with PKC-α inhibition; cited from earlier work.

Take `CCCCCCCCCCCCCC(=O)O[C@@H]1[C@@H](C)[C@@]2(O)[C@@H](C=C(CO)C[C@]3(O)C(=O)C(C)=C[C@@H]23)[C@@H]2C(C)(C)[C@]12OC(C)=O` [PMA, phorbol myristate acetate]: the “time after pretreatment up to which LTB4 induced migration is reduced” value in the data set with HMECs [1] is on record as “up to 48 hours”. Moreover, the HMEC viability entry in the data set with HMEC is “no effect”. Besides, the “migration induced by a combination of TNF-α pretreatment and LTB4 gradient” value in the data set on HMECs [2] was “reduced migration”. The “TNF-α induced neutrophil TEM (Type II migration)” value in the data set with HMECs [2] (HMECs, 24 h TNF-α 10 or 20 ng/ml, 1 hour pretreatment with 100 nM) is “attenuated Type II migration; also recorded: totally attenuated”. Moreover, the “trans endothelial resistance (TER)” value in [3] is recorded as “decrease trans endothelial resistance (TER)”. Besides, the “LTB4 induced adhesion to the endothelial monolayer” value in the data set on HMEC monolayers is “Neither PMA, nor Bryostatin-1 reduced LTB4 induced adhesion”. Also, the “time after pretreatment for which reduction in LTB4 induced migration is maintained” value in the data set with HUVECs is “up to 48 h”. Further, the “LTB4 induced neutrophil migration after pretreatment, PKC-ε knocked down” value in [4] was “did not restore LTB4 induced migration”. The HUVEC viability entry is “slight but significant reduction in viability” in the data set with HUVEC (48 h after a single 1 h treatment with 100 nM) and “no effect” in the data set on HUVEC (single 1 h 100 nM treatment, time points 1, 24, 48 h (PMA: except 48 h)). Further, in the data set on HMECs [5] (HMECs on transwells, 1 h pretreatment 100 nM or 10 nM (PMA: 100, 10 or 1 nM), 3 h), the “LTB4 induced neutrophil migration” value is given as “reduced LTB4 induced migration in a dose dependent manner”. Further, in the data set with HMECs [5] (HMECs, 1 h pretreatment at 1 nM), the “LTB4 induced neutrophil migration (PMN TEM)” value is “did not reduce PMN TEM; also recorded: had no effect on LTB4 induced migration”. Moreover, the “LTB4 induced neutrophil TEM” value in the data set with HMECs [5] (HMECs, 1 h pretreatment, higher doses (100 nM)) is recorded as “attenuated neutrophil TEM to levels below that of basal migration”.
As for hypocrellin A, the “increased permeability caused by high glucose and PMA” value in the data set with endothelial cells is reported as “reduced this increased permeability”.
